Experiments:
dorsal excisional wounds = assay: Quantitative analysis of collagen/ECM ultrastructure (Picrosirius Red, machine learning) of healed wounds; type: in vivo, mouse
Procedure: For analysis of Picrosirius Red-stained histologic sections, scars and surrounding normal skin from three biologic replicates were randomly imaged at 5 to 10 separate locations each, for a minimum of 20 images per experimental condition. Next, color deconvolution of Picrosirius Red images was performed in ImageJ using the algorithm previously described by Ruifrok et al., (A. C. Ruifrok, D. A. Johnston, Quantification of histochemical staining by color deconvolution. Anal Quant Cytol Histol 23, 291-299 (2001)) wherein each pure stain is characterized by absorbances within three RGB channels (Color 1=[1 0 0], Color 2=[0 1 0], Color 3=[1 1 1]). Ortho-normal transformation of the histology images produced individual images corresponding to each color's individual contribution to the image. Applied to birefringent Picrosirius Red images (green to red color under polarized light depending on packing of fiber bundles), this technique produced deconvoluted red and green images corresponding to mature and immature connective tissue fibers, which were then analyzed independently. Analysis was thus performed purely using extracellular matrix fibers, with no cellular elements included. Noise reduction of deconvoluted fibers was achieved using an adaptive Wiener filter in Matlab 2019a (wiener2 function), which tailors itself to the local image variance within a pre-specified neighborhood (3-by-3 pixels in the current application). The filter preferentially smooths regions with low variance, thereby preserving sharp edges of fibers. Smooth images were then binarized using the im2bw command and processed through erosion and dilation filters with both linear and diamond-shaped structuring elements to select for fiber-shaped objects. Finally, the fiber network was “skeletonized” using the bwmorph command and various parameters of the digitized map (fiber length, width, persistence, alignment, etc.) were measured using the regionprops command. Dimensionality reduction of quantified fiber network properties by […] stochastic neighbor embedding (t-SNE) was achieved using the default tsne (distance metric specified as Euclidian distance) command in Matlab. A Matlab script containing the fiber quantification pipeline is available at the following Github repository: https://github.com/shamikmascharak/Mascharak-et-al-ENF
To overcome these challenges, a novel machine learning algorithm recently reported to quantitatively assess connective tissue and fibrosis based on standard histology stains was employed. (S. Mascharak et al., Automated machine learning analysis of connective tissue networks in acute and chronic skin fibroses (manuscript submitted). (2019)) Briefly, images of Picrosirius Red-stained tissue were color-deconvoluted to isolate ECM fibers from cell bodies and nuclei. Fiber components were image-processed to reduce noise, then binarized to produce a digital map of thousands of fibers and branchpoints. A panel of individual (e.g., length, width) and group (e.g., packing, alignment) fiber properties was then measured to quantitatively profile ECM features.
Verteporfin- and control-treated specimens were stained with Picrosirius Red and subjected to this analysis.

[1] = tested on: mechanically loaded dorsal incisional wounds; assay: Mechanical loading of dorsal incisional wounds with Verteporfin treatment; type: in vivo, mouse
Procedure: 20 mm-long linear wounds were produced on the dorsum of P60 En-1^Cre-ERT;Ai6 mice and then closed with sutures. On POD 4, a loading device (constructed from 22 mm expansion screws and Luhr plate supports) was secured over each wound with adhesive and simple interrupted sutures. For mice receiving mechanotransduction signaling inhibitor, 30 μL of Verteporfin (1 mg/mL) was injected along the suture line both at POD 0 and POD 4; PBS was injected into wounds for vehicle controls. Device tension was increased by distracting expansion 2 mm every 2 days for 10 days total. Mice with unexpanded devices served as sham surgery controls. On POD 14, wounds were harvested and processed for histology to characterize the effects of increased wound tension on activation of ENFs to scarring pEPFs. In FIG. 2, G-I, a minimum of 4 mice was used for each experimental group.
Tissues were fixed in 2% paraformaldehyde for 16 h at 4° C. Samples were prepared for embedding by soaking in 30% sucrose in PBS for 1 week at 4° C. Samples were then removed from the sucrose solution, and tissue blocks were prepared by embedding in Tissue Tek U.C.T. (Sakura Finetek) under dry ice to achieve rapid freezing. Frozen blocks were mounted on a Thermo Scientific CryoStar NX70 cryostat, and 10 μm-thick sections were transferred to SuperfrostfPlus adhesive slides (Fisher). For hematoxylin and eosin staining, standard protocols were used with no modifications. For immunofluorescent staining, slides were blocked for 1 hr with Power Block (Biogenex) prior to addition of the following primary antibodies: Abeam ab34710 (anti-collagen type I), Abeam ab28340 (anti-CD26), Invitrogen MA5-15915 (anti-Dlk1), Abeam ab51317 (anti-Scat), Abeam ab5694 (anti-α-SMA), Santa Cruz Biotechnology sc-101199 (anti-YAP), Abeam ab7800 (anti-CK14), and Abeam ab52625 (anti-CK19). Slides were then incubated for 1 h with Alexa Fluor 568 or Alexa Fluor 647-conjugated anti-rabbit, anti-rat, or anti-mouse antibodies (Invitrogen). Finally, slides were mounted in Fluoromount-G mounting solution with DAPI (Thermo Fisher). Brightfield images were acquired with a Leica DMI4000B microscope, while fluorescent images were acquired with a Leica DM6000 SP5 upright confocal microscope.
Then, whether mechanical tension similarly promoted ENF-to-EPF transition in vivo was assessed. […]

With verteporfin the “Clustering of connective tissue parameters, Verteporfin-treated wounds vs unwounded skin” value (“Clustering … vs unwounded skin” for short) (dorsal excisional wounds; 30 days) was “increasing overlap”, the “Clustering … vs unwounded skin” value (dorsal excisional wounds; 90 days) was “complete overlap” and the “ECM fiber metrics (fiber length, width, branching, etc.)” value (dorsal excisional wounds; POD 14) was “comparable to unwounded skin”. For the same substance, the “Clustering … vs unwounded skin” value (dorsal excisional wounds; after 14 days) was “largely overlapping clusters”, the ECM features (dorsal excisional wounds; four treatments (POD 0, 4, 8 and 12)) was “diverged from those of unwounded skin” and the “Gross appearance of mechanically loaded wounds” value ([1]; 30 μL of 1 mg/mL injected at POD 0 and POD 4, harvested POD 14) was “grossly resembled control (non-mechanically loaded) wounds”. The “Number of pEPFs (GFP+ cells) in wounds” value ([1]; compared to mechanically loaded, non-Verteporfin treated wounds, POD 14) was “significantly fewer pEPFs”, the “YAP and a-SMA expression (immunofluorescent staining)” value ([1]; compared to untreated mechanically loaded wounds, POD 14) was “decreased YAP and a-SMA expression” and the “Number of YAP+ cells in wounds” value ([1]; mechanically loaded wounds, POD 14) was “significantly fewer YAP+ cells”.

From patent US20220313658A1, “YAP Inhibition for Wound Healing” (The Board of Trustees of the Leland Stanford Junior …, priority 2019, published 2022)
